Assay results: publication PMC6320288 (Neuroscience letters, 2018)

How the values were obtained:
[1] = biological target: T1, rat P2X3R (Rattus norvegicus, UniProt P49654); assay: whole-cell patch clamp in transfected HEK293 cells; assay type: cell-based; conditions: HEK293, read-out: % inhibition at 10 μM
T1 sequence (P49654 1-397): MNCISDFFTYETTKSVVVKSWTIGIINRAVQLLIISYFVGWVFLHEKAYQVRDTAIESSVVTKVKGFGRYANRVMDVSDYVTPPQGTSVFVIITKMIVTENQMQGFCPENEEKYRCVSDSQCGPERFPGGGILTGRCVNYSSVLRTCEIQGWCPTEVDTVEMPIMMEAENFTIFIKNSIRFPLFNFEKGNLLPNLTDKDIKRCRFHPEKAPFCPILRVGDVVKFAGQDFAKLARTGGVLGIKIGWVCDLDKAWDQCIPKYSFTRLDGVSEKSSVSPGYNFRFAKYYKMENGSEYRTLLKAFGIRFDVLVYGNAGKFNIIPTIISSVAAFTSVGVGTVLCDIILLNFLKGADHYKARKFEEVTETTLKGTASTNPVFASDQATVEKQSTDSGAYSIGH

[2] = biological target: T2, rat P2X4R (rP2X4R) (Rattus norvegicus, UniProt P51577); assay: cell-based
T2 sequence (P51577 1-388): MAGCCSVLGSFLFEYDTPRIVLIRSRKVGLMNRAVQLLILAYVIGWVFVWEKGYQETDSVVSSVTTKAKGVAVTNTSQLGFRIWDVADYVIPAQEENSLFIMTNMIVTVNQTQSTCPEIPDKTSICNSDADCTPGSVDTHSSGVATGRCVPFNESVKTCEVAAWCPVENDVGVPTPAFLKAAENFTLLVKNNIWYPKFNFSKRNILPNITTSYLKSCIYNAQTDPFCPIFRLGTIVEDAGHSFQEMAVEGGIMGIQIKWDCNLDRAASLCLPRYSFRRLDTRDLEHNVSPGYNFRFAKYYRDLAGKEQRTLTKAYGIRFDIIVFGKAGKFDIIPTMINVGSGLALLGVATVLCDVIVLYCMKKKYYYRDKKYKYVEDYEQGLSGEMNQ

| Compound | inhibition at 10 µM [1] | EC50 [2] |
| --- | --- | --- |
| O=C1CN=C(c2cccc(Br)c2)c2oc3ccccc3c2N1 [5-BDBD, 5-(3-bromophenyl)-1,3-dihydro-2H-benzofuro[3,2-e]-1,4-diazepin-2-one] | 35.9 ± 10.1% | – |
| Nc1ncnc2c1ncn2[C@@H]1O[C@H](COP(=O)(O)OP(=O)(O)OP(=O)(O)O)[C@@H](O)[C@H]1O [ATP] | – | 4.7 ± 1.8 µM |
